From US9079902B2, “Heteroaryl sodium channel inhibitors” (AMGEN INC., priority 2011, dated 2015)

What was measured:
Nav 1.7 = Nav 1.7 (Homo sapiens (Human), UniProt Q15858); assay: Nav 1.7 in vitro assay (IonWorks Quattro population patch-clamp); assay type: cell-based; conditions: 293 cells stably transfected with Nav 1.7; for IC50: 26th pulse to -20 mV, 5 Hz
Procedure: (§1) Nav 1.7 and Nav 1.5 In Vitro Assay
(§2) 293 cells stably transfected with either Nav 1.7 or with Nav 1.5 were recorded in population patch-clamp mode with the IonWorks® Quattro automated electrophysiology system in accordance with the manufacturer's specifications (Molecular Devices, LLC, Sunnyvale, Calif.). Sodium channel currents were measured in response to a train of depolarizations that induced successively greater inactivation.
(§3) Cells were held at −110 mV for three seconds (Nav 1.7) or half a second (Nav 1.5) from a holding voltage of −15 mV, then put through a series of 26 pulses of 150 msec duration to −20 mV at a frequency of 5 Hz. Cells were then left unclamped for a period of 3 to 8 minutes while a single concentration of test compound was added. Cells were then reclamped and put through the same voltage protocol. Current at the end of the 26th pulse to −20 mV was subtracted from the peak current evoked by the 26th pulse to −20 mV to correct for leak current. Percent block was calculated for each concentration in duplicate, and IC50 curves were fitted to percent block as a function of concentration.

Nav 1.5 = Nav 1.5 (Homo sapiens (Human), UniProt Q14524); assay: Nav 1.5 in vitro assay (IonWorks Quattro population patch-clamp); assay type: cell-based; conditions: 293 cells stably transfected with Nav 1.5; 26th pulse to -20 mV, 5 Hz
Nav 1.5, sequence (Q14524 whole entry): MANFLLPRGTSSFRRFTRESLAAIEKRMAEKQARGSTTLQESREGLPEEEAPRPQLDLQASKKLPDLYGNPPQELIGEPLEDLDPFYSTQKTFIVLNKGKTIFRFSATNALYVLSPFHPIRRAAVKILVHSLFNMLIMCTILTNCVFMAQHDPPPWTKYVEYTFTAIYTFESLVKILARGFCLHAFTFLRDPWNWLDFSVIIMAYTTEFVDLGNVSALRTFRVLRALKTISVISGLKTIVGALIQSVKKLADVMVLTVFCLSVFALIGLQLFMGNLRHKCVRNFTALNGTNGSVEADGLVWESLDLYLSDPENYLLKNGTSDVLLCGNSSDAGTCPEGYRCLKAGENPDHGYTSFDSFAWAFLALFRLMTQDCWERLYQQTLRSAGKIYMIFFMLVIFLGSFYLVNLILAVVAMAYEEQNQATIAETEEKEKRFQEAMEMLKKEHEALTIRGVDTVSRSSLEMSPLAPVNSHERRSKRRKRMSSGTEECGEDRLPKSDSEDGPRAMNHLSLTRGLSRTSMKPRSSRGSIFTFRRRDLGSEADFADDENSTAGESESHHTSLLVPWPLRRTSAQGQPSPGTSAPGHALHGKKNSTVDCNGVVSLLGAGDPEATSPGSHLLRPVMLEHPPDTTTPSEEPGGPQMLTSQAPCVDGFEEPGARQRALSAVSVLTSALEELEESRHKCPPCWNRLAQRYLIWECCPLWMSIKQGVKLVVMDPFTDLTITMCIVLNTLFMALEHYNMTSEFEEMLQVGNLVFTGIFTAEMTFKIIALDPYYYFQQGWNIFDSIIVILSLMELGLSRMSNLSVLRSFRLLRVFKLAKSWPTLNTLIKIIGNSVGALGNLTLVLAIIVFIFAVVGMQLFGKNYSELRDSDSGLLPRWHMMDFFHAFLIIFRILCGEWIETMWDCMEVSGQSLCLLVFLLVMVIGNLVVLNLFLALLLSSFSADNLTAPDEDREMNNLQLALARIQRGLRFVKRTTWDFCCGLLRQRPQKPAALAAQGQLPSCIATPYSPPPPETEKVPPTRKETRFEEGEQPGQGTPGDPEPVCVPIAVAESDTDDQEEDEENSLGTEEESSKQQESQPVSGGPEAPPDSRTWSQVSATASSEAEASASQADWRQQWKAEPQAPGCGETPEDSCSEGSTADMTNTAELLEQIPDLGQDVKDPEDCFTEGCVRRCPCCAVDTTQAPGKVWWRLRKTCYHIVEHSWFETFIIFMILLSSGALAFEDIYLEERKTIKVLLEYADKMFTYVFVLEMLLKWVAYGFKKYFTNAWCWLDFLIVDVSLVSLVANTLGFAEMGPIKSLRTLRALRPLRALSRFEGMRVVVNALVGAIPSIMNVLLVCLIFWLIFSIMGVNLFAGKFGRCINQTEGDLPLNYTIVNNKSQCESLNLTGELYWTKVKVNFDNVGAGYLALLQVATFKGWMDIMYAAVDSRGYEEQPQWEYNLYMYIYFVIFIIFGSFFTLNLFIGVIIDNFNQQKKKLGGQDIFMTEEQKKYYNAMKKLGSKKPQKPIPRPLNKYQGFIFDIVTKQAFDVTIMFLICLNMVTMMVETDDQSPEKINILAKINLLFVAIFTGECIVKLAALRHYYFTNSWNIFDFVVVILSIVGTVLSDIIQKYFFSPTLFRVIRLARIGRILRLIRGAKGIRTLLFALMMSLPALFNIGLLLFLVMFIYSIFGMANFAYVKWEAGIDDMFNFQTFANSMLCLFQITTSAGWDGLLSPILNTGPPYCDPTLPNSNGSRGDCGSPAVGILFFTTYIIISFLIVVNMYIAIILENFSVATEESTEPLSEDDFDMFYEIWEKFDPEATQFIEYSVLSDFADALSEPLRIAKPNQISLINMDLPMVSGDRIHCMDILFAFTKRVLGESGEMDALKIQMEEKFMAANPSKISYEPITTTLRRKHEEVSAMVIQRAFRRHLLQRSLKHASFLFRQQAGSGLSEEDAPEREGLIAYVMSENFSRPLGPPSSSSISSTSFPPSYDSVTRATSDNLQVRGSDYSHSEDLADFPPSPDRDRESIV
Procedure: as §1, §2, §3

Nav 1.7, sequence (Q15858 whole entry): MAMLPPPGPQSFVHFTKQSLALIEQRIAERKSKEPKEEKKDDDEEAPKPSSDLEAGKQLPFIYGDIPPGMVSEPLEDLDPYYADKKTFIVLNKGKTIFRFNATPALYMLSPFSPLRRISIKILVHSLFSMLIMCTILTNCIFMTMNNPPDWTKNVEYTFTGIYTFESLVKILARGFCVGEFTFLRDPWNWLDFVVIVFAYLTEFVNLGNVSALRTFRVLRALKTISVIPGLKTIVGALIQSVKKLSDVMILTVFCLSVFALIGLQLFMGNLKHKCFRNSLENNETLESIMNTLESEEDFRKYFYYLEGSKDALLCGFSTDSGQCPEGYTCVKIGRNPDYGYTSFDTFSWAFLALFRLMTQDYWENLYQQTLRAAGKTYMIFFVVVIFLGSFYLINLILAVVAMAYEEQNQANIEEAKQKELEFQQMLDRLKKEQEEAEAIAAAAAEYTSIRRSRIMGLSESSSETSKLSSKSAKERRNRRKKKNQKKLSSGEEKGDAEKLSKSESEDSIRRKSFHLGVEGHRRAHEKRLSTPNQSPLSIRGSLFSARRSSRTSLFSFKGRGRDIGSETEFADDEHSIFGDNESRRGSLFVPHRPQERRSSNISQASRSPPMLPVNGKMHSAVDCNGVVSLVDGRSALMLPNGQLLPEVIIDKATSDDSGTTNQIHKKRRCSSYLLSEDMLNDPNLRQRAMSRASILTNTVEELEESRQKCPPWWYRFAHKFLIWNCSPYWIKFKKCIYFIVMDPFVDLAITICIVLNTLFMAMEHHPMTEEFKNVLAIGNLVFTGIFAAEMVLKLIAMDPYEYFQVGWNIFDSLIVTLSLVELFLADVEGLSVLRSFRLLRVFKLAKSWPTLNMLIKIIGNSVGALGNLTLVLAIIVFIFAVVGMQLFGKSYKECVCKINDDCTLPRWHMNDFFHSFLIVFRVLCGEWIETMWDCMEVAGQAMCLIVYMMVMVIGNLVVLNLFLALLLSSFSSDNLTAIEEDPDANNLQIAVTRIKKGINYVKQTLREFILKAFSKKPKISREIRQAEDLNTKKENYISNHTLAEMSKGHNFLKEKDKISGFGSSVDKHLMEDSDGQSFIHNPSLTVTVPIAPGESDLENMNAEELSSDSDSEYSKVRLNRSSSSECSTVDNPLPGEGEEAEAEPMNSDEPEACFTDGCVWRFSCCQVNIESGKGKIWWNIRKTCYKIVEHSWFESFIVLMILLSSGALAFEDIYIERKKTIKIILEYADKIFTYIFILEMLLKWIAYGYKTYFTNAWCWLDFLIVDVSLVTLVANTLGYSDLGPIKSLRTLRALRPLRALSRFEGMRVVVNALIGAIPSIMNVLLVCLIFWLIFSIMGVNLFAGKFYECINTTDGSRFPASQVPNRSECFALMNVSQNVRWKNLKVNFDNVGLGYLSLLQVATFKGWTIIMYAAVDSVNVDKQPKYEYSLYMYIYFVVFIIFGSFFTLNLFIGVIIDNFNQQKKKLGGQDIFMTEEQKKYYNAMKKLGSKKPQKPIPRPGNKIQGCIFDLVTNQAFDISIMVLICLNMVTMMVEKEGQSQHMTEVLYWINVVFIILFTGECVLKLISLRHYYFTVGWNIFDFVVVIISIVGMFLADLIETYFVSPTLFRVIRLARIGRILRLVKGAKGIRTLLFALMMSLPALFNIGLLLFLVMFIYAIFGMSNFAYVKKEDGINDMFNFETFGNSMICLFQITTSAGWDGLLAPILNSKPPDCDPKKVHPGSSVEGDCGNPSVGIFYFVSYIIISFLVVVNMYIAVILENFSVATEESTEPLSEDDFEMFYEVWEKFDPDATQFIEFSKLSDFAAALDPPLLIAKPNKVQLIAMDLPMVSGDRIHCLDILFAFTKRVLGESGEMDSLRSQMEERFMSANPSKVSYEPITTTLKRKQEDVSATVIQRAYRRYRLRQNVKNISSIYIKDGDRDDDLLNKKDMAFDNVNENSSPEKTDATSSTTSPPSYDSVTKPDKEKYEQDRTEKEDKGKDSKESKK

| SMILES | IC50 (Nav 1.7) [nM] | IC50 (Nav 1.5) [nM] | inhibition at 4.9 µM (Nav 1.7; HEK293, at 4.9 μM) [%] |
| --- | --- | --- | --- |
| CC(=O)n1cc(-c2ccc(C(F)(F)F)cc2-c2ccnn2C)c2ccc(S(=O)(=O)Nc3ncns3)cc21 [Example 4, 1-Acetyl-3-(2-(1-Methyl-1H-Pyrazol-5-yl)-4-(Trifluoromethyl)Phenyl)-N-(1,2,4-Thiadiazol-5-yl)-1H-Indole-6-Sulfonamide] | 50.5 | > 10000 | – |
| CC(=O)n1cc(-c2ccc(C(F)(F)F)cc2-c2ccnn2C)c2ccc(S(=O)(=O)Nc3ncns3)nc21 [Example 27, 1-Acetyl-3-(2-(1-Methyl-1H-Pyrazol-5-yl)-4-(Trifluoromethyl)Phenyl)-N-(1,2,4-Thiadiazol-5-yl)-1H-Pyrrolo [2,3-B]Pyridine-6-Sulfonamide] | 674 | > 10000 | – |
| Cn1cc(-c2ccc(C(F)(F)F)cc2C2=CCNCC2)c2ccc(S(=O)(=O)Nc3cscn3)cc21 [Example 66, 1-Methyl-3-(2-(1,2,3,6-Tetrahydropyridin-4-Yl)-4-(Trifluoromethyl)Phenyl)-N-(Thiazol-4-Yl)-1H-Indole-6-Sulfonamide] | 1410 | > 10000 | – |
| Cn1cc(-c2cc3ccccc3o2)c2ccc(S(=O)(=O)Nc3ncns3)cc21 [Example 59, 3-(Benzofuran-2-Yl)-1-Methyl-N-(1,2,4-Thiadiazol-5-Yl)-1H-Indole-6-Sulfonamide] | – | > 10000 | 36.2 |
